Values of other authors, collected in paper PMC9686516, “Pharmacokinetic Characteristics of Nebulized Colistimethate Sodium Using Two Different Types of Nebulizers in Critically Ill Patients with Ventilator-Associated Respiratory Infections” (Antibiotics, 2022).
Where a SMILES comes first, the peptide text is derived from it. Bridges are numbered along the chain shown (N, C = ends). [ ]: non-standard residue; d: D form. The star is where a group is joined. X1 = CC[C@H](C)CCCCC(=O)*; Dab = NCC[C@H](N)C(=O)O

Conditions: 1 mIU of CMS via VMN; similar ICU setting; median (IQR); cited from earlier work
Description: In this single-center study, we compared the pharmacokinetic properties of formed colistin in the ELF and the plasma compartment when inhaled CMS, at a typical dose, was administered either via a VMN or a generic JN. […] Indeed, the median total (as opposed to unbound) AUC0–24 in the ELF for the two modalities were 86.2 and 91.5 mg/L*h for VMN and JN, respectively. […] However, the ELF exposure was similar, despite the higher dose, probably due to a higher clearance from the lung compartment in our study, as evidenced by the ... || Contrarily, our results were only marginally compatible with the results of Boisson et al. and Gkoufa et al.. In the former study, the range of colistin concentration in the ELF following a 2 mIU inhalation spanned from 9.53 to 1137 mg/L [14], while it was between 0.8 mg/L and 57.9 mg/L in the present study. In the latter study, the exact values were not reported, however in the figured data it was shown that after an inhalation of 3 to 5 mIU of CMS, formed colistin concentrations were in the range of 10^2 to 10^3 mg/L [16]. Again, it is not known whether these differences we ...

In the case of `CC[C@H](C)CCCCC(=O)N[C@@H](CCN)C(=O)N[C@H](C(=O)N[C@@H](CCN)C(=O)N[C@H]1CCNC(=O)[C@H]([C@@H](C)O)NC(=O)[C@H](CCN)NC(=O)[C@H](CCN)NC(=O)[C@H](CC(C)C)NC(=O)[C@@H](CC(C)C)NC(=O)[C@H](CCN)NC1=O)[C@@H](C)O` [colistin] (X1-[Dab]T[Dab][Dab][Dab][dL]L[Dab][Dab]T; lactam 4-C), the “Cmax in ELF” value is listed as 6.7 (4.8–10.1) mg/L.
